Test results: patent publication US8263644B2, “Cytotoxic xanthone compounds” (Bristol-Myers Squibb Company, priority 2007, dated 2012)
Values after ≈ are worked out from the molar mass of the structure shown. Like-named read-outs stand apart in the source and are kept apart here.

Columns and labels:
[1] = test system: A2780; assay: in vitro cytotoxicity, tumor cell line A2780; assay type: cell-based; details: Homo sapiens
Description: (§1) General Experimental Procedures. NMR spectra were obtained on a Bruker DRX 500 MHz spectrometer, equipped with a 5-mm TXI cryoprobe. Proton and carbon chemical shifts are reported in ppm relative to DMSO at δH 2.49 and δC 39.6. LC-NMR on an enriched psoroxanthin (4) sample was conducted with a Varian Inova 600 MHz instrument, using a YMC ODS-AQ (C18) column, 4.6×150 mm, 3μ and mobile phase water-acetonitrile 7:3, isocratic, 1.2 ml/min flow rate. Low-resolution MS and MS/MS measurements were performed by +νe ESI on a Thermo Scientific Finnigan SSQ7000 (single quadrupole MS), TSQ7000 (triple quadrupole MS), or LCQ Classic (ion trap MS). High-resolution MS data were determined by HR +νe ESI on a Thermo Scientific Finnigan MAT900 (magnetic sector MS, polypropylene glycol reference) or Orbitrap (hybrid ion trap-FTICR MS). IR spectra were recorded with a Perkin-Elmer System 2000 FT-IR instrument (thin film-NaCl). UV spectra were obtained using a Hewlett-Packard 8452A diode array spectrophotometer. Sephadex LH-20 (Pharmacia Biotech) and LiChroprep Si 60, 25-40 μm (EM Separations) were used for column chromatography. HPLC(C18) conditions: Analytical: Agilent HP-1100, Waters corp. […]
(§2) The SOS active compounds 1 and 4 were evaluated for in vitro cytotoxicity in a variety of tumor cell lines. […]

[2] = test system: HCT-116; assay: in vitro cytotoxicity, tumor cell line HCT-116; assay type: cell-based; details: Homo sapiens
Description: as §1, §2

[3] = in vitro cytotoxicity, ABAE bovine endothelial cells; assay type: cell-based; details: bovine, ABAE endothelial cells; ABAE cell line
Description: (§3) In particular there was a clear in vitro cytotoxicity observed against ABAE cells (bovine endothelial cell line, 0.03 μg/ml).
as §1, with “corp. X-Terra […] (C18) column, 4.6×150 mm; mobile phase: 0.01 N potassium phosphate buffer pH 3.5-acetonitrile gradient, flow rate 1.2 ml/min. UV 254 nm (Hook, D. J., More, C. F., Yacobucci, J. J., Dubay, G., O'Connor, S.; J. Chromatogr., 1987, 385, 99-108.) Preparative: Beckman System Gold workstation, YMC ODS-A 5μ (C18) column, 20×100 mm. For TLC biogram (SOS) analyses, Silica gel plates (Analtech, 0.25 mm) with chloroform-methanol mixtures (i.e. 95:5 v/v) as the mobile phase were used. For HPLC biogram (SOS) analyses, fractions were collected into Beckman 96-deepwell plates using a Gilson 215 liquid handler and dried under nitrogen stream prior to bioassay.” for “corp.”
as §2

[4] = test system: ABAE cells (bovine endothelial cell line); assay: as above; assay type: cell-based; details: versus the tumor cell lines
Description: as §3
as §1, with “corp. X-Terra […] (C18) column, 4.6×150 mm; mobile phase: 0.01 N potassium phosphate buffer pH 3.5-acetonitrile gradient, flow rate 1.2 ml/min. UV 254 nm (Hook, D. J., More, C. F., Yacobucci, J. J., Dubay, G., O'Connor, S.; J. Chromatogr., 1987, 385, 99-108.) Preparative: Beckman System Gold workstation, YMC ODS-A 5μ (C18) column, 20×100 mm. For TLC biogram (SOS) analyses, Silica gel plates (Analtech, 0.25 mm) with chloroform-methanol mixtures (i.e. 95:5 v/v) as the mobile phase were used. For HPLC biogram (SOS) analyses, fractions were collected into Beckman 96-deepwell plates using a Gilson 215 liquid handler and dried under nitrogen stream prior to bioassay.” for “corp.”
as §2

[5] = test system: SKBR3; assay: in vitro cytotoxicity, tumor cell line SKBR3; assay type: cell-based; details: Homo sapiens, SK-BR-3, read-out: Cytotoxicity IC50
Description: as §1, §2

[6] = test system: 6-cell line panel; assay: cytotoxicity in a 6-cell line panel; assay type: cell-based; details: read-out: mean IC50, cytotoxicity
Description: as §3, §1

[7] = test system: Escherichia coli SOS chromotest; assay: Escherichia coli SOS chromotest (TLC/HPLC biogram); assay type: cell-based; details: E. coli SOS chromotest
Excerpt: The crude extracts as received were subjected to a modified “Kupchan” liquid-liquid partitioning sequence, (Kupchan, S. M., Britton, R. W., Ziegler, M. F., Sigel, C. W.; J. Org. Chem., 1973, 38, 178-179.), followed by gel partition chromatography (Sephadex LH-20) and/or Silica gel vacuum liquid chromatography. The fractionation was guided initially by TLC-bioautography using the Escherichia coli SOS chromotest assay. ((a) Quillardet, P.; Huisman, O.; D'Ari, R.; Hofnung, M. Proc. Natl. Acad. Sci. U.S.A. 1982, 79, 5971-5975. (b) Mamber, S. W.; Okasinski, W. G.; Pinter, C. D.; Tunac, J. B. Mutat. Res., 1986, 171, 83-90.). More precise localization of the peak of SOS activity was later made possible using HPLC biogram methodology. ((a) Fura, A.; Shu, Y.-Z.; Zhu, M.; Hanson, R. L.; Roongta, V.; Humphreys, W. G. J. Med. Chem. 2004, 47, 4339-4351. (b) Hook, D. J., More, C. F., Yacobucci, J. J., Dubay, G., O'Connor, S.; J. Chromatogr., 1987, 385, 99-108.). In this manner, analytical HPLC was used to further fractionate the SOS-active sample into 96-deep-well plates. […]
General Experimental Procedures. […] High-resolution MS data were determined by HR +νe ESI on a Thermo Scientific Finnigan MAT900 (magnetic sector MS, polypropylene glycol reference) or Orbitrap (hybrid ion trap-FTICR MS). IR spectra were recorded with a Perkin-Elmer System 2000 FT-IR instrument (thin film-NaCl). […]

[8] = test system: various tumor cell lines; details: cited from earlier work
[9] = test system: p388 mouse leukemia; details: cited from earlier work

Row | Structure (SMILES) | IC50 ([1]; A2780, read-out: Cytotoxicity IC50) | IC50 ([2]; HCT-116, read-out: Cytotoxicity IC50) | IC50 [3] | selectivity against bovine endothelial cells (ABAE) [4] | IC50 [5] | IC50 [6] | SOS activity [7] | IC50 ([1]; A2780 cell line, read-out: Cytotoxicity IC50) | IC50 ([2]; HCT-116 cell line, read-out: Cytotoxicity IC50) | IC50 ([6]; mean over 6-cell line panel) | activity in vitro against various tumor cell lines [8] | activity in vivo against p388 mouse leukemia [9]
1 | O=c1c2c(O)cccc2oc2ccc3c(c12)CC(C(O)(CO)CCl)O3 (centres unmarked) [Example 1, 3′,4′-deoxy-4′ chloropsoroxanthin-3′,5′-diol] | 42 nM | 68 nM | 4 nM | showed selectivity against bovine endothelial cells (ABAE) | 2000 nM | 0.2 to 4 µg/mL (≈ 0.551 to 11 µM) | SOS-active |  |  |  |  | 
2 | O=c1c2c(O)cccc2oc2ccc3c(c12)CC(C1(CO)CO1)O3 (centres unmarked) [Example 4, Psoroxanthin] |  |  | 102 nM |  |  |  | highly potent SOS-active | 330 nM | 1000 nM | 0.2 to 4 µg/mL (≈ 0.613 to 12.3 µM) |  | 
3 | COc1cc2c(c3oc4c(O)cccc4c(=O)c13)C[C@H]([C@@]1(C)CO1)O2 [psorospermin] |  |  |  |  |  |  |  |  |  |  | significant activity | significant activity
